In PubChem BioAssay AID493083 (Broad Institute, 2011):
Active and inactive are the calls of the source.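 The calls were made as follows: active = compounds lowering signal whose fitted AC50 is at most ten times the top tested dose; inconclusive = flat fit with moderate inhibition, or poor curve fit; inactive = the rest.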

System: NIH3T3 R4 HSF-1 GFP reporter, heat shock, 48 h
Test: GFP reporter loss versus dox-driven RFP – NIH3T3 R4 cells, cherry-pick, set 3, dose response (AID 493083)

C#CC(=O)N(c1cc(OC)ccc1OC)C(C(=O)NC1CCCC1)c1cccs1 (configuration not stated)
AC50: 5.66 µM

O=C(CCl)Nc1cc(SCC(O)CO)cc([N+](=O)[O-])c1 (configuration not stated)
AC50: 5.73 µM

Cc1c(NC(=O)C2CC(c3ccc(F)cc3)=NO2)c(=O)n(-c2ccccc2)n1C (configuration not stated)
AC50: > 19.5 µM (inactive)

COc1ccc(C[C@H]2NC[C@H](O)[C@H]2OC(C)=O)cc1
AC50: 0.551 µM

CCc1ccc(S(=O)(=O)/N=C2\C=C(Nc3ccc(O)cc3)C(=O)c3ccccc32)cc1
AC50: 1.74 µM

Cc1ccc(S(=O)(=O)c2ncccc2[N+](=O)[O-])cc1
AC50: 5.64 µM

CC[C@H]1CN2CCc3cc(OC)c(OC)cc3[C@@H]2C[C@@H]1C[C@H]1NCCc2cc(OC)c(OC)cc21
AC50: 0.526 µM

Cn1c(=O)c([N+](=O)[O-])c(Cl)c2ccccc21
AC50: 16.9 µM

CC(C)(C)c1ccc2c(c1)OC(C(=O)N/N=C\c1ccc[nH]1)CO2 (configuration not stated)
AC50: 0.848 µM

CC(=O)Cn1ncc(Br)c(Br)c1=O
AC50: 5.62 µM

COc1ccccc1-c1cc(C(F)(F)F)nc(S(=O)(=O)CCCC(=O)NCc2ccc(F)cc2)n1
AC50: 5.18 µM

O=S(=O)(c1ccc2c(c1)C(=NO)c1cc(S(=O)(=O)N3CCCCC3)ccc1-2)N1CCCCC1
AC50: 2.08 µM

Cc1cc(C)c2nc(C(F)(F)F)c(C#N)c(N)c2c1
AC50: > 19.5 µM (inactive)

Nc1ccc2oc(C3CCCCC3)nc2c1
AC50: > 19.5 µM (inactive)

Cc1ccc(NC2=C/C(=N\S(=O)(=O)c3cccs3)c3ccccc3C2=O)c(C)c1
AC50: 1.32 µM

Cc1cc([N+](=O)[O-])c2ccccc2[n+]1[O-]
AC50: 5.71 µM

CCOC(=O)Cc1nnc2c(Nc3ccccc3F)nc3nonc3n12
AC50: 12.4 µM

CCOc1ccc(C(=O)COC(=O)Cc2n[nH]c(=O)c3ccccc23)cc1
AC50: > 19.5 µM (inactive)

Cc1nn(-c2ccccc2)c(N)c1C(O)(CSc1nccn1C)C(F)(F)F (configuration not stated)
AC50: > 19.5 µM (inactive)

C=C(C)C(=O)O[C@H]1C/C(C)=C\C(=O)/C=C(\C)[C@H](O)[C@@H]2OC(=O)C(=C)[C@@H]21
AC50: 15.4 µM

O=C(CCl)N(c1ccccc1)C1CCCCC1
AC50: 5.43 µM

CCOC(=O)c1c(C)[nH]c2c1-c1ccccc1C(=O)C2=O
AC50: 1.4 µM

NC(=O)C1CCN(CC(=O)Nc2nc(-c3ccccc3)cs2)CC1
AC50: > 19.5 µM (inactive)

CCOC(=O)/C(=C\c1ccc([N+](=O)[O-])cc1)C(=O)c1cc(C(C)=O)c(Nc2ccccc2)s1
AC50: 11.7 µM

CCN(c1ccccc1)S(=O)(=O)c1cnc[nH]1
AC50: > 19.5 µM (inactive)

CCCCS(=O)(=O)/C=C\C=C/S(=O)(=O)CCCC
AC50: 5.46 µM

CC12CCC(C/C1=N\N=C1\NC(=O)/C(=C\c3ccc(Cl)cc3)S1)C2(C)C (configuration not stated)
AC50: 2.4 µM

COc1ccc2[nH]c(=O)c(CN(Cc3cccs3)S(=O)(=O)c3c(C)ccc4nsnc34)cc2c1
AC50: > 19.5 µM (inactive)

CCOC(=O)C1CCN(C(=O)CC(C)c2ccccc2)CC1 (configuration not stated)
AC50: > 10 µM (inactive)

Fc1ccc(-n2cc(-c3ccccc3)c3c(N4CCOCC4)ncnc32)cc1
AC50: > 19.5 µM (inactive)

O=C(CCl)Nc1ccc(-c2ccccc2)cc1
AC50: 17.2 µM

S=C1Cc2ccccc2N1
AC50: 12.4 µM

COc1cc(C2CC(c3cccs3)=NN2C(=O)CCl)ccc1OC(F)F (configuration not stated)
AC50: 14.8 µM

COc1cccc(-c2nnc3n2N=C(C(C)(C)C)CS3)c1
AC50: > 19.5 µM (inactive)

OCCCNc1nccc(-c2cc(Nc3cccc(Cl)c3)ncn2)n1
AC50: 18.7 µM

Nc1ncnc2c1ccn2[C@@H]1O[C@H](CO)[C@@H](O)[C@H]1O
AC50: 10.5 µM

O=C(COC(=O)/C=C/c1ccc(C(F)(F)F)cc1)NC1CC1
AC50: > 19.5 µM (inactive)

Cc1ccc(-n2nc(C)c3cc(C(=O)O)sc32)cc1
AC50: > 19.5 µM (inactive)

Nc1nc(F)nc2c1ncn2[C@@H]1O[C@H](CO)[C@@H](O)[C@H]1O
AC50: 1.61 µM

O=C1C=C(NCCN2CCOCC2)C(=O)c2cnccc21
AC50: 5.57 µM

O=C(CCl)Nc1cn(-c2ccccc2)nc1-c1ccc(F)cc1
AC50: 4.77 µM

CN=c1scc(-c2ccco2)n1/N=C/c1ccc(O)c(O)c1
AC50: 5.23 µM

NNC(=S)NC1CC2CC1C1C=CCC21 (configuration not stated)
AC50: > 19.5 µM (inactive)

O=C(Nc1ccccc1Cl)/C(Cl)=C(\Cl)S(=O)c1ccccc1 (configuration not stated)
AC50: 1.81 µM

CC(C)CN=C(NS(=O)(=O)c1ccccc1)C(Cl)(Cl)Cl
AC50: 16.1 µM

O=S(=O)(C/C(=C/CO)S(=O)(=O)c1ccccc1)c1ccccc1
AC50: 5.86 µM

C[C@H]1C[C@@H](C)C(=O)[C@@H]([C@H](O)CC2CC(=O)NC(=O)C2)C1
AC50: 0.336 µM
